We go through 14 molecules from patent US8354419B2, “Benzimidazole analogues for the treatment or prevention of flavivirus infections” (Vertex Pharmaceuticals Incorporated, priority 2009, dated 2013).

Each structure is given as a SMILES string. Bounds are passed on as bounds.

The test system of the assay is HCV (Ib) RNA replication. Put plainly: Cell-based luciferase reporter HCV (1b) RNA replication assay (replicon cell lines Huh-7 5.2 and ET). Details: species or system Hepatitis C virus. To be noted: Hepatitis C virus, Huh-7, 96 h, HCV 1b genotype replicon, luciferase readout, 4 days incubation; read-out: EC50_1b. From the text: Cell-Based Luciferase Reporter HCV (Ib) RNA Replication Assay Cell Culture
Replicon cell lines Huh-7, 5.2 and ET which are derived from the Huh-7 hepatocarcinoma cell line are maintained in culture as generally described in Krieger, N; Lohmann, V; Bartenschlager, R. Enhancement of hepatitis C virus RNA replication by cell culture-adaptive mutations. J. Virol. 2001, 75, 4614-4624. The Huh-7, 5.2 cells contain the highly cell culture-adapted replicon I389luc-ubi-neo/NS3-3′/5.1 construct that carries, in addition to the neomycin gene, an integrated copy to the firefly luciferase gene (Krieger, N; Lohmann, V; Bartenschlager, R. Enhancement of hepatitis C virus RNA replication by cell culture-adaptive mutations. J. Virol. 2001, 75, 4614-4624). This cell line allows measurement of HCV RNA replication and translation by measuring luciferase activity. It has been previously shown that the luciferase activity tightly follows the replicon RNA level in these cells (Krieger, N; Lohmann, V; Bartenschlager, R. Enhancement of hepatitis C virus RNA replication by cell culture-adaptive mutations. J. Virol. 2001, 75, 4614-4624). The Huh-7, ET cell line has the same features as those mentioned for Huh-7, 5.2 cell line, except that ET cells are more robust and contain an adaptative mutation in the HCV NS4B gene instead of NS5A. Both cell lines are maintained in cultures at a sub-confluent level (<85%) as the level of replicon RNA is highest in actively proliferating cells. The culture media used for cell passaging consist of DMEM (Gibco BRL Laboratories, Mississauga, ON, Canada) supplemented with 10% foetal bovine serum with 1% penicillin/streptomycin, 1% glutamine, 1% sodium pyruvate, 1% non-essential amino acids, and 180 ug/ml of G418 final concentration. Cells are incubated at 37° C., in an atmosphere of 5% CO2 and passaged twice a week to maintain sub-confluence.
Approximately 3000 viable Huh-7, 5.2 or ET cells (100 μl) are plated per well in a white opaque 96-well microtiter plate. The cell culture media used for the assay is the same as described above except that it contains no G418 and no phenol red. After an incubation period of 3-4 hours at 37° C. in a 5% CO2 incubator, compounds (100 μl) are added at various concentrations. Cells are then further incubated for 4 days at 37° C. in a 5% CO2 incubator. Thereafter, the culture media is removed and cells are lysed by the addition of 95 μL of the luciferase buffer (luciferin substrate in buffered detergent). Cell lysates are incubated at room temperature and protected from direct light for at least 10 minutes. Plates are read for luciferase counts using a luminometer (Wallac MicroBeta Trilux, Perkin ELmer™, MA, USA).
The 50% inhibitory concentrations (IC50s) for inhibitory effect are determined from dose response curves using eleven concentrations per compound in duplicate. Curves are fitted to data points using nonlinear regression analysis, and IC50s are interpolated from the resulting curve using GraphPad Prism software, version 2.0 (GraphPad Software Inc., San Diego, Calif., USA).
Table 2 show compounds representative of the present invention and the EC50 values against the HCV 1b genotype.
As for `COC(=O)N[C@H](C(=O)N1CCC[C@H]1c1nc2cc(-c3cc(C)c(-c4ccc5nc([C@@H]6CCCN6C(=O)[C@@H](NC(=O)OC)C(C)C)[nH]c5c4)cc3C)ccc2[nH]1)C(C)C` [Compound 14, ((S)-1-{(S)-2-[5-(4-{2-[(S)-1-((S)-2-Methoxycarbonylamino-3-methyl-butyryl)-pyrrolidin-2-yl]-1H-benzoimidazol-5-yl}-2,5-dimethyl-phenyl)-1H-benzoimidazol-2-yl]-pyrrolidine-1-carbonyl}-2-methyl-propyl)-carbamicacid methyl ester], the EC50 was no more than 5 nM.
For `COC(=O)N[C@H](C(=O)N1CCC[C@H]1c1nc2cc(-c3cnc(-c4ccc5[nH]c([C@@H]6CCCN6C(=O)[C@@H](NC(=O)OC)C(C)C)nc5c4)nc3)ccc2[nH]1)C(C)C` [Compound 15, ((S)-1-{(S)-2-[5-(5-{2-[(S)-1-((S)-2-Methoxycarbonylamino-3-methyl-butyryl)-pyrrolidin-2-yl]-1H-benzoimidazol-5-yl}-pyrimidin-2-yl)-1H-benzoimidazol-2-yl]-pyrrolidine-1-carbonyl}-2-methyl-propyl)-carbamic acid methyl ester] the value was no more than 5 nM; for `CC(C)(C)OC(=O)N1CCC[C@H]1c1nc2cc(-c3ccc(-c4ccc5[nH]c([C@@H]6CCCN6C(=O)OC(C)(C)C)nc5c4)s3)ccc2[nH]1` [Compound 16, (2S,2′S)-tert-butyl-2,2′-(5,5′-(thiophene-2,5-diyl)bis(1H-benzo[d]imidazole-5,2-diyl))dipyrrolidine-1-carboxylate], 5 to 5000 nM; for `COC(=O)N[C@H](C(=O)N1CCC[C@H]1c1nc2cc(-c3ccc(-c4ccc5[nH]c([C@@H]6CCCN6C(=O)[C@@H](NC(=O)OC)C(C)C)nc5c4)s3)ccc2[nH]1)C(C)C` [Compound 17], no more than 5 nM.
Consider `COC(=O)N[C@H](C(=O)N1CCC[C@H]1c1nc2cc(-c3csc(-c4ccc5[nH]c([C@@H]6CCCN6C(=O)[C@@H](NC(=O)OC)C(C)C)nc5c4)c3)ccc2[nH]1)C(C)C` [Compound 18, methyl N-[(1S)-1-[(2S)-2-[5-[4-[2-[(2S)-1-[(2S)-2-(methoxycarbonylamino)-3-methyl-butanoyl]pyrrolidin-2-yl]-1H-benzimidazol-5-yl]-2-thienyl]-1H-benzimidazol-2-yl]pyrrolidine-1-carbonyl]-2-methyl-propyl]carbamate], for which the EC50 is no more than 5 nM.
With `COC(=O)N[C@H](C(=O)N1CCC[C@H]1c1nc2cc(-c3ncc(-c4ccc5nc([C@@H]6CCCN6C(=O)[C@@H](NC(=O)OC)C(C)C)[nH]c5c4)c(OCc4ccccc4)n3)ccc2[nH]1)C(C)C` [Compound 19, ((S)-1-{(S)-2-[5-(4-Benzyloxy-5-{2-[(S)-1-((S)-2-methoxycarbonylamino-3-methyl-butyryl)-pyrrolidin-2-yl]-1H-benzoimidazol-5-yl}-pyrimidin-2-yl)-1H-benzoimidazol-2-yl]-pyrrolidine-1-carbonyl}-2-methyl-propyl)-carbamic acid methyl ester] the figure was no more than 5 nM; with `COC(=O)N[C@H](C(=O)N1CCC[C@H]1c1nc2cc(-c3ncc(-c4ccc5nc([C@@H]6CCCN6C(=O)[C@@H](NC(=O)OC)C(C)C)[nH]c5c4)c(O)n3)ccc2[nH]1)C(C)C` [Compound 20, ((S)-1-{(S)-2-[5-(4-Hydroxy-5-{2-[(S)-1-((S)-2-methoxycarbonylamino-3-methyl-butyryl)-pyrrolidin-2-yl]-1H-benzoimidazol-5-yl}-pyrimidin-2-yl)-1H-benzoimidazol-2-yl]-pyrrolidine-1-carbonyl}-2-methyl-propyl)-carbamic acid methyl ester], 5 to 5000 nM.
As for `COC(=O)N[C@H](C(=O)N1CCC[C@H]1c1nc2ccc(-c3cn(-c4ccc5nc([C@@H]6CCCN6C(=O)[C@@H](NC(=O)OC)C(C)C)[nH]c5c4)nn3)cc2[nH]1)C(C)C` [Compound 21, ((S)-1-{(S)-2-[6-(1-{2-[(S)-1-((S)-2-Methoxycarbonylamino-3-methyl-butyryl)-pyrrolidin-2-yl]-3H-benzoimidazol-5-yl}-1H-[1,2,3]triazol-4-yl)-1H-benzoimidazol-2-yl]-pyrrolidine-1-carbonyl}-2-methyl-propyl)-carbamic acid methyl ester], the EC50 is no more than 5 nM.
For `CC[C@@H]1CC[C@@H](c2nc3cc(-c4ccc(-c5ccc6nc([C@@H]7CC[C@@H](CC)N7C(=O)[C@@H](NC(=O)OC)C(C)C)[nH]c6c5)cc4)ccc3[nH]2)N1C(=O)[C@@H](NC(=O)OC)C(C)C` [Compound 24, ((S)-1-{(2R,5S)-2-Ethyl-5-[5-(4-{2-[(2S,5R)-5-ethyl-1-((S)-2-methoxycarbonylamino-3-methyl-butyryl)-pyrrolidin-2-yl]-1H-benzoimidazol-5-yl}-phenyl)-1H-benzoimidazol-2-yl]-pyrrolidine-1-carbonyl}-2-methyl-propyl)-carbamic acid methyl ester] the value was no more than 5 nM; for `COC(=O)N[C@H](C(=O)N1C[C@H](OC(C)(C)C)C[C@H]1c1nc2cc(-c3ccc(-c4ccc5[nH]c([C@@H]6C[C@@H](OC(C)(C)C)CN6C(=O)[C@@H](NC(=O)OC)C(C)C)nc5c4)cc3)ccc2[nH]1)C(C)C` [Compound 25, ((S)-1-{(2S,4R)-4-tert-butoxy-2-[5-(4-{2-[(2S,4R)-4-tert-butoxy-1-((S)-2-methoxycarbonylamino-3-methyl-butyryl)-pyrrolidin-2-yl]-1H-benzoimidazol-5-yl}-phenyl)-1H-benzoimidazol-2-yl]-pyrrolidine-1-carbonyl}-2-methyl-propyl)-carbamic acid methyl ester], no more than 5 nM; for `COC(=O)N[C@H](C(=O)N1CCC[C@H]1c1nc2cc(F)c(-c3ccc(-c4cc5[nH]c([C@@H]6CCCN6C(=O)[C@@H](NC(=O)OC)C(C)C)nc5cc4F)cc3)cc2[nH]1)C(C)C` [Compound 27, Dimethyl (2S,2′S)-1,1′-((2S,2′S)-2,2′-(5,5′-(1,4-phenylene)bis(6-fluoro-1H-benzo[d]imidazole-5,2-diyl))bis(pyrrolidine-2,1-diyl))bis(3-methyl-1-oxobutane-2,1-diyl)dicarbamate], no more than 5 nM.
For `CC(C)(C)OC(=O)N1CCN(C(=O)OCc2ccccc2)[C@H](c2nc3cc(C#Cc4ccc5[nH]c([C@@H]6CCCCN6C(=O)OCc6ccccc6)nc5c4)ccc3[nH]2)C1` [Compound 28, (S)-2-{5-[2-((S)-1-Benzyloxycarbonyl-piperidin-2-yl)-1H-benzoimidazol-5-ylethynyl]-1H-benzoimidazol-2-yl}-piperazine-1,4-dicarboxylic acid 1-benzyl ester 4-tert-butyl ester] the value was 5 to 5000 nM.
As to `CC(C)(C)OC(=O)N1CCN(C(=O)OCc2ccccc2)[C@H](c2nc3cc(C#Cc4ccc5[nH]c([C@@H]6CN(C(=O)OC(C)(C)C)CCN6C(=O)OCc6ccccc6)nc5c4)ccc3[nH]2)C1` [Compound 29, (S)-2-{5-[2-((S)-1-Benzyloxycarbonyl-4-tert-butyloxycarbonyl-piperazin-2-yl)-1H-benzoimidazol-5-ylethynyl]-1H-benzoimidazol-2-yl}-piperazine-1,4-dicarboxylic acid 1-benzyl ester 4-tert-butyl ester], the EC50 is greater than 5000 nM.
For `O=C(OCc1ccccc1)N1CCCC[C@H]1c1nc2cc(C#Cc3ccc4nc([C@@H]5CCCCN5C(=O)OCc5ccccc5)[nH]c4c3)ccc2[nH]1` [Compound 30, (S)-2-{5-[2-((S)-1-Benzyloxycarbonyl-piperidin-2-yl)-1H-benzoimidazol-5-ylethynyl]-1H-benzoimidazol-2-yl}-piperidine-1-carboxylic acid benzyl ester] the value was 5 to 5000 nM.
